Key:
Assay type in all cases: in vivo
[1] = system: cotton aphids (Aphis gossypii); assay: Test Method 1: foliar spray on cucumber seedling infested with cotton aphids (Formulation example 1); settings: 120 h, spray 10 mL/seedling, examined after 5 days, 25°C, read-out: controlling value
[2] = system: cotton worm (Spodoptera litura); assay: Test Method 3: sprayed cabbage leaves fed to second instar cotton worm; settings: 120 h, second instar larvae, after 5 days, 25°C, read-out: mortality of insects
Description: (§1) The following tests in the test examples below were conducted at 25°C.
(§2) Cabbage (Brassicae oleracea) seedling (on the developmental stage of the second to third true leaf) is planted in a cup, and the diluted solutions are sprayed into the seedling at a ratio of 20 mL/seedling. Thereafter, the stem and leaf thereof are cut out and then is installed into a cup that is covered with filter paper on the bed of the cup. Five (5) cotton worm (Spodoptera litura) at the second instar larval stage are released into the cup. After 5 days, the number of the surviving insects is counted, and the mortality of insects is calculated by the following equation. [formula]

[3] = system: diamondback moth (Plutella xylostella); assay: Test Method 4: sprayed cabbage leaves fed to second instar diamondback moth; settings: 120 h, second instar larvae, after 5 days, 25°C, read-out: mortality of insects
Description: (§3) Next, an efficacy of the present compound on controlling harmful arthropods is shown by Test examples. The following tests in the test examples below were conducted at 25°C.
Test compounds are made to a formulation according to a similar method to that described in the Formulation example 1, and thereto is added water containing 0.03 v/v% of Shindain (registered trademark) to prepare a diluted solution containing a prescribed concentration of the test compound.
as §2, with “diamondback moth (Plutella xylostella)” for “cotton worm (Spodoptera litura)”

[4] = system: cotton worm (Spodoptera litura); assay: Test Method 9: sprayed cabbage seedling, third instar cotton worm (Formulation example 5); settings: 144 h, third instar larvae, after 6 days, 25°C, read-out: controlling value
Description: as §1
(§4) Cabbage (Brassicae oleracea) seedling (on the developmental stage of the third to fourth true leaf) is planted in a cup, and the diluted solutions are sprayed into the seedling at a ratio of 20 mL/seedling. Thereafter, ten (10) cotton worm (Spodoptera litura) at the third instar larval stage are released onto the seedling. After 6 days, the number of the surviving insects is counted, and the mortality of insects is calculated by the following equation. [formula]

[5] = system: diamondback moth (Plutella xylostella); assay: Test Method 10: sprayed cabbage seedling, third instar diamondback moth (Formulation example 5); settings: 144 h, third instar larvae, after 6 days, 25°C, read-out: controlling value
Description: as §1
as §4, with “diamondback moth (Plutella xylostella)” for “cotton worm (Spodoptera litura)”

[6] = system: cotton aphids (Aphis gossypii); assay: Test Method 11: foliar spray on cucumber seedling infested with cotton aphids (Formulation example 5); settings: 120 h, spray 10 mL/seedling, examined after 5 days, 25°C, read-out: controlling value
[7] = system: common house mosquitos (Culex pipiens pallens); assay: Test Method 12: mosquito larvae released into diluted solution; settings: 24 h, last instar larvae, after 1 day, 25°C, read-out: controlling value
Description: as §1
Into the diluted solution, 30 common house mosquitos (Culex pipiens pallens) at the last instar larval stage are released, and after 1 day, the state of the house mosquito larvae is examined, and the mortality of insects is calculated by the following equation. [formula]

[8] = system: housefly (Musca domestica); assay: Test Method 8: coated container contact test, housefly; settings: 24 h, 40 mg/m^2, female adults, after one (1) day, 25°C, read-out: mortality of insects
Description: as §3
Acetone solution in which test compounds are adjusted to 800 ppm are prepared, and the solution is poured into a container having an internal volume of 20 mL, and the solution is coated uniformly on an inner face of the container such that the test compound is made to be 40 mg/m^2, and the container is then dried.
Five (5) housefly (Musca domestica) female adults are placed in the container, and the cup is covered with the lid. After the prescribed timing is passed, the state of the housefly is examined, and the mortality of insects is calculated by the following equation. [formula]

SMILES: CCS(=O)(=O)c1c(C(=O)N(C)c2nc3cccc(F)c3s2)nc2ccc(I)cn12 [compound 22]
- mortality at 500 ppm [1]: ≥ 90%
- mortality at 500 ppm [2]: ≥ 80%
- mortality at 500 ppm [3]: ≥ 80%
- mortality at 200 ppm [4]: ≥ 80%
- mortality at 50 ppm [5]: ≥ 80%
- mortality at 200 ppm [5]: ≥ 80%
- mortality at 50 ppm [6]: ≥ 90%
- mortality at 200 ppm [6]: ≥ 90%
- mortality at 3.5 ppm [7]: ≥ 90%

SMILES: CCS(=O)(=O)c1c(C(=O)N(C)c2nc3ccc(F)cc3s2)nc2ccc(I)cn12 [compound 23]
- mortality at 500 ppm [1]: ≥ 90%
- mortality at 500 ppm [2]: ≥ 80%
- mortality at 500 ppm [3]: ≥ 80%
- mortality at 50 ppm [4]: ≥ 80%
- mortality at 200 ppm [4]: ≥ 80%
- mortality at 50 ppm [5]: ≥ 80%
- mortality at 50 ppm [6]: ≥ 90%
- mortality at 200 ppm [6]: ≥ 90%
- mortality at 3.5 ppm [7]: ≥ 90%

SMILES: CCS(=O)(=O)c1c(C(=O)N(C)c2nc3cc(Cl)ccc3s2)nc2ccc(I)cn12 [compound 29]
- mortality at 500 ppm [1]: ≥ 90%
- mortality at 500 ppm [2]: ≥ 80%
- mortality at 500 ppm [3]: ≥ 80%
- mortality at 50 ppm [4]: ≥ 80%
- mortality at 200 ppm [4]: ≥ 80%
- mortality at 50 ppm [5]: ≥ 80%
- mortality at 200 ppm [5]: ≥ 80%
- mortality at 200 ppm [6]: ≥ 90%
- mortality at 3.5 ppm [7]: ≥ 90%

SMILES: CCS(=O)(=O)c1c(C(=O)N(C)c2nc3ccccc3s2)nc2ccc(I)cn12 [compound 31]
- mortality at 500 ppm [1]: ≥ 90%
- mortality at 500 ppm [2]: ≥ 80%
- mortality at 500 ppm [3]: ≥ 80%
- mortality at 50 ppm [4]: ≥ 80%
- mortality at 200 ppm [4]: ≥ 80%
- mortality at 50 ppm [5]: ≥ 80%
- mortality at 200 ppm [5]: ≥ 80%
- mortality at 50 ppm [6]: ≥ 90%
- mortality at 200 ppm [6]: ≥ 90%
- mortality at 3.5 ppm [7]: ≥ 90%

SMILES: CCS(=O)(=O)c1c(C(=O)N(C)c2nc3c(F)cc(F)cc3s2)nc2ccc(I)cn12 [compound 35]
- mortality at 500 ppm [1]: ≥ 90%
- mortality at 500 ppm [2]: ≥ 80%
- mortality at 500 ppm [3]: ≥ 80%
- mortality at 50 ppm [4]: ≥ 80%
- mortality at 200 ppm [4]: ≥ 80%
- mortality at 50 ppm [5]: ≥ 80%
- mortality at 200 ppm [5]: ≥ 80%
- mortality at 3.5 ppm [7]: ≥ 90%

SMILES: CCS(=O)(=O)c1c(C(=O)N(C)c2nc3ccc(F)cc3o2)nc2ccc(I)cn12 [compound 40]
- mortality at 500 ppm [1]: ≥ 90%
- mortality at 500 ppm [3]: ≥ 80%
- mortality at 200 ppm [6]: ≥ 90%
- mortality at 3.5 ppm [7]: ≥ 90%

SMILES: CCS(=O)(=O)c1c(C(=O)N(C)c2nc3cc(Cl)ccc3o2)nc2ccc(I)cn12 [compound 41]
- mortality at 500 ppm [1]: ≥ 90%
- mortality at 500 ppm [3]: ≥ 80%
- mortality at 50 ppm [5]: ≥ 80%
- mortality at 200 ppm [5]: ≥ 80%
- mortality at 50 ppm [6]: ≥ 90%
- mortality at 200 ppm [6]: ≥ 90%
- mortality at 3.5 ppm [7]: ≥ 90%

SMILES: CCS(=O)(=O)c1c(C(=O)N(C)c2nc3cc(F)c(F)cc3o2)nc2ccc(I)cn12 [compound 42]
- mortality at 500 ppm [1]: ≥ 90%
- mortality at 500 ppm [2]: ≥ 80%
- mortality at 3.5 ppm [7]: ≥ 90%

SMILES: CCS(=O)(=O)c1c(C(=O)N(C)c2nc3cc(F)c(F)cc3s2)nc2ccc(Br)cn12 [compound 43]
- mortality at 500 ppm [2]: ≥ 80%
- mortality at 500 ppm [3]: ≥ 80%
- mortality at 40 mg/m2 [8]: ≥ 80%
- mortality at 50 ppm [4]: ≥ 80%
- mortality at 200 ppm [4]: ≥ 80%
- mortality at 200 ppm [6]: ≥ 90%

SMILES: CCS(=O)(=O)c1cccnc1C(=O)N(C)c1nc2cc(C(F)(F)F)ccc2n1C [compound 56]
- mortality at 500 ppm [1]: ≥ 90%
- mortality at 500 ppm [3]: ≥ 80%
- mortality at 3.5 ppm [7]: ≥ 90%

SMILES: CCSc1c(C(=O)N(C)c2nc3cc(F)ccc3n2C)nc2ccc(I)cn12 [compound 70]
- mortality at 500 ppm [1]: ≥ 90%
- mortality at 50 ppm [6]: ≥ 90%
- mortality at 200 ppm [6]: ≥ 90%
- mortality at 3.5 ppm [7]: ≥ 90%

SMILES: CCS(=O)(=O)c1c(C(=O)N(C)c2nc3ncc(F)cc3s2)nc2ccc(I)cn12 [compound 76]
- mortality at 500 ppm [1]: ≥ 90%
- mortality at 500 ppm [2]: ≥ 80%
- mortality at 500 ppm [3]: ≥ 80%
- mortality at 50 ppm [4]: ≥ 80%
- mortality at 200 ppm [4]: ≥ 80%
- mortality at 50 ppm [5]: ≥ 80%
- mortality at 200 ppm [5]: ≥ 80%
- mortality at 200 ppm [6]: ≥ 90%
- mortality at 3.5 ppm [7]: ≥ 90%

SMILES: CCS(=O)(=O)c1cc(-c2ccccn2)cnc1C(=O)N(C)c1nc2cc(F)c(F)cc2s1 [compound 109]
- mortality at 500 ppm [1]: ≥ 90%
- mortality at 500 ppm [2]: ≥ 80%
- mortality at 500 ppm [3]: ≥ 80%
- mortality at 50 ppm [4]: ≥ 80%
- mortality at 200 ppm [4]: ≥ 80%
- mortality at 50 ppm [5]: ≥ 80%
- mortality at 200 ppm [5]: ≥ 80%
- mortality at 50 ppm [6]: ≥ 90%
- mortality at 200 ppm [6]: ≥ 90%
- mortality at 3.5 ppm [7]: ≥ 90%

SMILES: CCS(=O)(=O)c1cc(-c2ncccn2)cnc1C(=O)N(C)c1nc2cc(F)c(F)cc2s1 [compound 111]
- mortality at 500 ppm [1]: ≥ 90%
- mortality at 500 ppm [2]: ≥ 80%
- mortality at 500 ppm [3]: ≥ 80%
- mortality at 50 ppm [4]: ≥ 80%
- mortality at 200 ppm [4]: ≥ 80%
- mortality at 50 ppm [5]: ≥ 80%
- mortality at 200 ppm [5]: ≥ 80%
- mortality at 50 ppm [6]: ≥ 90%
- mortality at 200 ppm [6]: ≥ 90%
- mortality at 3.5 ppm [7]: ≥ 90%

SMILES: CCS(=O)(=O)c1cc(C2CC2)cnc1C(=O)N(C)c1nc2cc(F)c(F)cc2s1 [compound 115]
- mortality at 500 ppm [1]: ≥ 90%
- mortality at 500 ppm [2]: ≥ 80%
- mortality at 500 ppm [3]: ≥ 80%
- mortality at 50 ppm [4]: ≥ 80%
- mortality at 200 ppm [4]: ≥ 80%
- mortality at 50 ppm [5]: ≥ 80%
- mortality at 200 ppm [5]: ≥ 80%
- mortality at 50 ppm [6]: ≥ 90%
- mortality at 200 ppm [6]: ≥ 90%
- mortality at 3.5 ppm [7]: ≥ 90%

SMILES: CCOc1cnc(C(=O)N(C)c2nc3cc(F)c(F)cc3s2)c(S(=O)(=O)CC)c1 [compound 125]
- mortality at 500 ppm [1]: ≥ 90%
- mortality at 500 ppm [2]: ≥ 80%
- mortality at 500 ppm [3]: ≥ 80%
- mortality at 50 ppm [4]: ≥ 80%
- mortality at 200 ppm [4]: ≥ 80%
- mortality at 50 ppm [5]: ≥ 80%
- mortality at 200 ppm [5]: ≥ 80%
- mortality at 50 ppm [6]: ≥ 90%
- mortality at 200 ppm [6]: ≥ 90%
- mortality at 3.5 ppm [7]: ≥ 90%

SMILES: CCS(=O)(=O)c1ccc(-c2ncccn2)nc1C(=O)N(C)c1nc2cc(F)c(F)cc2s1 [compound 130]
- mortality at 500 ppm [1]: ≥ 90%
- mortality at 500 ppm [2]: ≥ 80%
- mortality at 500 ppm [3]: ≥ 80%
- mortality at 50 ppm [4]: ≥ 80%
- mortality at 200 ppm [4]: ≥ 80%
- mortality at 50 ppm [5]: ≥ 80%
- mortality at 200 ppm [5]: ≥ 80%
- mortality at 50 ppm [6]: ≥ 90%
- mortality at 200 ppm [6]: ≥ 90%
- mortality at 3.5 ppm [7]: ≥ 90%

SMILES: CCS(=O)(=O)c1ccc(-n2cncn2)nc1C(=O)N(C)c1nc2cc(F)c(F)cc2s1 [compound 131]
- mortality at 500 ppm [2]: ≥ 80%
- mortality at 500 ppm [3]: ≥ 80%
- mortality at 200 ppm [4]: ≥ 80%
- mortality at 50 ppm [5]: ≥ 80%
- mortality at 200 ppm [5]: ≥ 80%
- mortality at 3.5 ppm [7]: ≥ 90%

SMILES: CCS(=O)(=O)c1ccc(NC)nc1C(=O)N(C)c1nc2cc(F)c(F)cc2s1 [compound 134]
- mortality at 500 ppm [1]: ≥ 90%
- mortality at 500 ppm [2]: ≥ 80%
- mortality at 500 ppm [3]: ≥ 80%
- mortality at 50 ppm [4]: ≥ 80%
- mortality at 200 ppm [4]: ≥ 80%
- mortality at 50 ppm [5]: ≥ 80%
- mortality at 200 ppm [5]: ≥ 80%
- mortality at 50 ppm [6]: ≥ 90%
- mortality at 200 ppm [6]: ≥ 90%
- mortality at 3.5 ppm [7]: ≥ 90%

SMILES: CCS(=O)(=O)c1ccc(N(C)C)nc1C(=O)N(C)c1nc2cc(F)c(F)cc2s1 [compound 135]
- mortality at 500 ppm [2]: ≥ 80%
- mortality at 500 ppm [3]: ≥ 80%
- mortality at 50 ppm [5]: ≥ 80%
- mortality at 200 ppm [5]: ≥ 80%
- mortality at 50 ppm [6]: ≥ 90%
- mortality at 200 ppm [6]: ≥ 90%
- mortality at 3.5 ppm [7]: ≥ 90%

SMILES: CCS(=O)(=O)c1c(C(=O)N(C)c2nc3cc(F)c(F)cc3s2)nn(C)c1C1CC1 [compound 144]
- mortality at 500 ppm [1]: ≥ 90%
- mortality at 500 ppm [2]: ≥ 80%
- mortality at 500 ppm [3]: ≥ 80%
- mortality at 50 ppm [5]: ≥ 80%
- mortality at 200 ppm [5]: ≥ 80%
- mortality at 200 ppm [6]: ≥ 90%
- mortality at 3.5 ppm [7]: ≥ 90%

From patent publication EP4722205A1, “HETEROCYCLIC COMPOUND AND NOXIOUS ARTHROPOD-CONTROLLING COMPOSITION CONTAINING SAME” (Sumitomo Chemical Company, Limited, priority 2023, dated 2024)
